Reference: patent publication US20240010992A1, “COMPOSITIONS AND METHODS TO IMPROVE IPSC-EC FUNCTION” (Northwestem University, priority 2022, published 2024)
Entries after “also recorded” stand apart in the source; their conditions may differ. Where two headings read alike, the source gives them in different places.

Key:
ACS1028-ECs [1] = assay: Cell survival of purified iPSC-ECs by light microscopy cell counting / Trypan blue; format: cell-based; settings: for cell survival: serial passaging
Experimental: There were three biological replicates for each group in each experiment, unless otherwise specified. For MitoTracker quantification, total fluorescence signal for the area was measured in Fiji and divided by the number of nuclei present. This was done for 5 fields of view (technical replicates) and averaged to generate a data point for a given biological replicate. For the DAF-FM reduction measurements for NO production, a given experimental condition was plated into 3 wells of a 96 well plate. For TEM analysis, each biological sample was imaged in a minimum of 5 locations. Three representative images from each condition were utilized for quantifying autolysosomes per high power field (HPF) in each of two separate experiments. For light microscopy images, cells were manually counted from three distinct areas of a given experimental condition on two separate occasions. All data wereanalyzed with one-way ANOVA with a post-hoc Tukey test in IBM SPSS Statistics for Macintosh, version 27 (IBM Corp., Armonk, N.Y., USA). A p value of <0.05 was considered significant, where * represent comparisons between the specified groups.
(§1) Experiments were conducted to determine whether inducing autophagy in iPSC-ECs overcomes the premature senescence phenomenon. […] Due to the loss of proliferating cells in the control culture, the experiment was terminated at passage 3.
(§2) To assess whether the effect of Rg2 on proliferation is mediated through autophagy, ACS1028-ECs was administered with 200 μM Rg2 and SBI-0206965 to block ULK1 kinase at varying concentrations. Cell survival was assessed by counting the number of cells per high power field by light microscopy, which diminished over serial passages in the DMSO-treated vehicle-control condition.

CD144 and CD31 = assay: Immunostaining for CD144 and CD31 and morphology of iPSC-ECs; format: cell-based, human; settings: ACS1028 and Y6 iPSC-ECs
Experimental: Immunostaining was performed by fixing cells in 4% paraformaldehyde for 15 minutes at room temperature and then washing with PBS. Cells were then permeabilized with 70% ice cold ethanol on ice and blocked with 0.5% BSA in PBS for 15 minutes at room temperature. Cells were then incubated overnight at 4° C. with the primary antibody in antibody dilution buffer (0.05% BSA in PBS) at the following concentrations: Nanog (Life Technologies PA1-097, 1:100), SSEA4 (Life Technologies 414000, 1:400), Sox2 (Life Technologies PA1-16968, 1:100), VE-cadherin/CD144 (Sigma V1514, 1:200), PECAM1/CD31 (Abcam ab187377, 1:100). The isotype control antibodies used in this study were mouse IgG1 (Abcam ab172730) and rabbit serum. Cells were washed with PBS and incubated with conjugated secondary antibodies at room temperature in the dark (Life Technologies, 1:300).

ACS1028-derived ECs = assay: Mitophagy inducing drug experiment, cell number by total Hoechst signal; settings: all concentrations, by passage 1
Experimental: (§4) The effect of increasing mitophagy in iPSC-ECs was evaluated.

Y6-derived ECs = assay: as above; settings: all concentrations, by passage 1
Experimental: as §4

ACS1028-ECs [2] = assay: Cell proliferation assay (EdU labeling) of iPSC-ECs over serial passages; format: cell-based, human
Experimental: Proliferating cells were labeled with EdU using the Invitrogen Click-iT microplate assay kit (Invitrogen C10214), without the use of the Amplex Ultra red step. Cells were labeled for 24 hours with 10 μM EdU or DMSO as a vehicle control. Cells were fixed and prepared according to the manufacturer's instructions, minus the Amplex Ultra red labeling. Hoechst 33342 was added at 5 μg/mL (Invitrogen H1399), and labeled cells were imaged on a Zeiss inverted fluorescence microscope. Four tiled images at 10× magnification were collected per each well of 3 biological replicates per condition and stitched together as a single image per well for analysis. EdU-labeled and total nuclei were counted in Fiji.
as §1

LC3-II = assay: Western blotting of LC3-II (normalized to GAPDH) in ACS1028-EC lysate; format: cell-based, human; settings: ACS1028-ECs
Experimental: Western blotting was performed using a modified Novus Biological protocol (NB100-2220) with 10%, 12%, 14% or 4-20% gradient SDS-PAGE gels. Cells were collected and lysed with RIPA buffer plus PMSF protease inhibitor. Cell lysate was centrifuged at high speed for 10 minutes at 4° C., and the supernatant was transferred to a fresh tube. The total protein content was quantified with a Bradford assay, and a total of 20 ug of protein was mixed with Laemmli buffer (4% SDS, 5% 2-mercaptoethanol (BME), 20% glycerol, 0.004% bromophenol blue, 0.125 M Tris HCl, pH 6.8) and denatured for 10 minutes at 95° C. This was followed by wet transfer to PVDF immobilon membrane (Millipore IPFL00010) and blocked with Odyssey TBS blocking buffer (LiCor 927-50000). […] Bands were quantified and normalized by a ratio of LC3-II:GAPDH, rather than LC3-II:LC3-I as LC3-II is more sensitive in blotting and accurate observed alone.
as §2

SIRT1 = assay: Western blotting, SIRT1 expression in iPSC-ECs; format: cell-based; settings: human iPSC-derived endothelial cells
Excerpt: (§3) Milk solution was removed, and membranes rinsed in TBST. […] ECL was applied for chemiluminescence. Imaging was done using Bio-Rad imager.

[3] = test system: endothelial nitric oxide synthase; assay: Western blotting, phosphorylation of endothelial nitric oxide synthase in iPSC-ECs; format: cell-based; settings: human iPSC-derived endothelial cells
Excerpt: as §3

Parkin = assay: Western blotting, Parkin expression in iPSC-ECs; format: cell-based, human; settings: particularly under bafilomycin treated conditions
Excerpt: as §3

Drp1 = assay: Western blotting, phosphorylation of Drp1 in iPSC-ECs; format: cell-based; settings: human iPSC-derived endothelial cells
Excerpt: as §3

Opal = assay: Western blotting, Opal expression in iPSC-ECs; format: cell-based; settings: human iPSC-derived endothelial cells
Excerpt: as §3

PKM2 = assay: Western blotting, phosphorylation of PKM2 in iPSC-ECs; format: cell-based, human; settings: particularly under bafilomycin treated conditions
Excerpt: as §3

PDH = assay: Western blotting, PDH expression in iPSC-ECs; format: cell-based, human; settings: particularly under bafilomycin treated conditions
Excerpt: as §3

Experimental for cleaved caspase 3: Utilizing 8%, 10%, and 14% polyacrylamide gels, samples were run at 150V for 1 to 2 hours in SDS-Tris-Glycine buffer. Gels were then transferred to nitrocellulose membrane for two and half hours at 0.35 Amps in Tris-Glycine transfer buffer. After transfer nitrocellulose membranes were blocked in 10% milk/TBST solution for 1 hr. Milk solution was removed, and membranes rinsed in TBST. Blocked membranes were cut and placed in primary antibody solution (5% BSA/TBST) overnight. After incubation with primary antibody incubation membranes were washed with TBST for 5 mins 3X. Secondary antibody incubation (Rabbit 1:1000) in 5% BSA solution was applied for 2 hrs. After secondary antibody incubation membranes were washed with TBST for 15 mins 3X. ECL was applied for chemiluminescence. Imaging was done using Bio-Rad imager.

## Oc1ccc(C=Cc2cc(O)cc(O)c2)cc1 [resveratrol]
ACS1028-ECs [1]
  presence of cells by light microscopy: no cells visible
  residual cells, Trypan blue: no residual cells
ACS1028-ECs [1]; purified ACS1028-ECs
  cell survival: no cells surviving to passage 1

## Antimycin A
CD144 and CD31
  CD144 and CD31 expression and typical morphology (mature endothelial cell phenotype): accelerated the loss of CD144 and CD31 as well as typical morphology
ACS1028-derived ECs
  cell loss / cell survival (total Hoechst signal): high levels of cell loss; also recorded: decreased cell survival
Y6-derived ECs
  cell survival (total Hoechst signal): decreased cell survival

## N=c1c2c(-c3ccccc3)c(-c3ccccc3)n(Cc3ccccc3)c2ncn1[C@H]1CC[C@H](O)CC1 [ML246]
ACS1028-ECs [1]
  presence of cells by light microscopy: no cells visible
  residual cells, Trypan blue: no residual cells

## CC(C)=CCC[C@](C)(O)[C@H]1CC[C@]2(C)[C@@H]1[C@H](O)C[C@@H]1[C@@]3(C)CC[C@H](O)C(C)(C)[C@@H]3[C@@H](O[C@@H]3O[C@H](CO)[C@@H](O)[C@H](O)[C@H]3O[C@@H]3O[C@@H](C)[C@H](O)[C@@H](O)[C@H]3O)C[C@]12C [Rg2]
ACS1028-ECs [2]; serial passages, experiment terminated at passage 3
  persistence of the proliferation benefit over serial passages: persisted through passage 3; also recorded: sustained through passage 3
ACS1028-ECs [2]; versus DMSO vehicle control and rapamycin, ML246, Antimycin A or oligomycin
  proliferation (EdU labeled cells): increased rate of proliferation; also recorded: statistically significant improvement in proliferation
ACS1028-ECs [1]; purified ACS1028-ECs
  cell survival: improved cell survival
LC3-II; passage 3, Rg2 treated vs DMSO
  LC3-II level by Western blotting: increase in LC3-II level
SIRT1
  SIRT1 expression: increased expression of longevity protein SIRT1 in a dose-dependent manner
[3]
  phosphorylation (activity) of endothelial nitric oxide synthase: increased phosphorylation
Parkin
  Parkin (mitophagy marker) expression: increased Parkin expression; also recorded: slightly increases
Drp1
  phosphorylation of Drp1 (mitochondrial fission): increased phosphorylation of Drp1
Opal
  expression of Opal (mitochondrial fusion): increased
PKM2
  phosphorylation of PKM2: increased phosphorylation of PKM2
PDH
  expression of PDH: increased
Cleaved caspase 3
  apoptosis (cleaved caspase 3): no increase in cleaved caspase 3

## N#CC(C#N)=NNc1ccc(OC(F)(F)F)cc1 [FCCP]
CD144 and CD31
  CD144 and CD31 expression and typical morphology (mature endothelial cell phenotype): accelerated loss of mature endothelial cell phenotype
ACS1028-derived ECs
  cell loss / cell survival (total Hoechst signal): high levels of cell loss

## NCCCCNCCCN [spermidine]
ACS1028-ECs [1]; purified ACS1028-ECs incubated overnight with Trypan blue
  residual cells, Trypan blue: no residual cells
ACS1028-ECs [1]; purified ACS1028-ECs, versus control and DMSO-vehicle control
  presence of cells by light microscopy: no cells visible

## CC[C@H]1/C=C/C=C/C[C@@H](C)[C@H](O)[C@@](C)(O)C(=O)[C@@H](C)[C@H](O)[C@@H](C)C(=O)[C@@H](C)[C@H](O)[C@@H](C)/C=C/C(=O)O[C@@H]2[C@H](C)[C@H](CC1)O[C@]1(CC[C@H](C)[C@H](C[C@@H](C)O)O1)[C@H]2C [oligomycin]
CD144 and CD31
  CD144 and CD31 expression and typical morphology (mature endothelial cell phenotype): accelerated the loss of CD144 and CD31 as well as typical morphology
ACS1028-derived ECs
  cell loss / cell survival (total Hoechst signal): high levels of cell loss; also recorded: decreased cell survival
Y6-derived ECs
  cell survival (total Hoechst signal): decreased cell survival

## CNC(=O)c1ccccc1Oc1nc(Nc2cc(OC)c(OC)c(OC)c2)ncc1Br [SBI-0206965]
ACS1028-ECs [1]
  presence of cells by light microscopy: no cells visible
  residual cells, Trypan blue: no residual cells
ACS1028-ECs [1]; 10 μM (highest concentration) in the presence of 200 μM Rg2, passages 2 and 3
  cell survival (cells per high power field), co-treatment with Rg2: almost no surviving cells
ACS1028-ECs [1]; purified ACS1028-ECs
  cell survival: no cells surviving to passage 1
ACS1028-ECs [1]; varying concentrations of SBI-0206965 in the presence of 200 μM Rg2, survival to passage 3
  cell survival (cells per high power field), co-treatment with Rg2: fewer cells surviving when treated with higher concentrations; also recorded: statistically significant reduction in cell survival in a dose-dependent manner
LC3-II; passage 3, SBI-0206965 at any concentration added to Rg2
  LC3-II level by Western blotting, co-treatment with Rg2: reduced
